Read-outs that look alike come from different tables or passages of the source.
Assay: Blood and brain microdialysis (unbound concentrations) in male CD-IGS rats after single p.o. administration
Assay type: in vivo, rat
Settings: for Kp / Tmax: rat
Description: Microdialysis: A total of 3 male CD-IGS rats were used. Stomach-cannulated CD-IGS rats (male, weight range: 250-300 g) supplied by Charles River Laboratories were used in this study. Following surgery, all animals were housed in BASi Raturn® containment systems with standard bedding material. Rat chow and water were available ad libitum, and all animals were kept in an ambient temperature room under a 6 am to 6 pm 12-hour lighting schedule.
Animal surgeries consisted of implanting a CMA/20 14/10PC vascular microdialysis probe (Part #8309571, CMA Microdialysis, North Chelmsford, Mass.) in the jugular vein, according to an IACUC protocol. Each animal was then stereotaxically implanted with an intracerebral guide directed toward the top of the striatum (A/P: 0.7, L/M: −3.0, DN: −3.0; from bregma), according to a rat stereotaxic atlas. Paxinos G. F. K., The mouse brain in stereotaxic coordinates (Academic Press, San Diego, Calif.) (2001). A BASi BR-4 brain microdialysis probe (Part # MD-2204, BASi, West Lafayette, Ind.) was inserted prior to recovery, and the probes were slowly perfused (0.5 μL/min) with either sterile lactated Ringer's (brain) or Dulbecco's phosphate-buffered saline (D-PBS; blood). Animals were allowed to recover for at least 24 hours prior to dosing. On the day of dosing, the blank perfusate was replaced with perfusate containing the probe calibrator, and flow was set to 1.25 μl/min. 4-amino-2-(2,6-dioxo-piperidine-3-yl)-isoindoline-1,3-dione was administered as a single p.o. administration via the stomach cannula, at 50 mg/kg (5 mL/kg) in a 0.5% A carboxymethylcellulose/0.25% Tween® 80 suspension formulation.
Microdialysate was collected in a cooling fraction collector, set at 4° C. (Eicom # EFC-82, EFR-82, Eicom, San Diego, Calif.) at intervals of 25 minutes for 10 hours after dosing. To calculate area-under-the-curve (AUC), the corrected concentration of each sample was multiplied by the interval over which the sample was collected; in this case 25 minutes, and divided by 60 minutes per hour. The sum of these values represented the total AUC value over the specified time range. To generate graphs, the concentration at each time point was plotted at the mid-point of each collection interval. Microdialysates were collected at the specified time points and analyzed for 4-amino-2-(2,6-dioxo-piperidine-3-yl)-isoindoline-1,3-dione concentration using a liquid chromatography-tandem mass spectrometry (LC-MS/MS) assay, within 12 hours. Interim storage was at 4° C.
Mass Spectral Analysis: Microdialysate samples were injected directly into the LC-MS/MS system without processing. Chromatographic separation was achieved using a Phenomenex Synergi C18 column (50×4.6 mm, 4 μm) with gradient elution of 0.1% formic acid in water and 0.1% formic acid in acetonitrile. Detection and quantitation were performed using positive electrospray in multiple reaction-monitoring (“MRM”) modes on a Waters Micromass Ultima tandem mass spectrometer. Transition ions monitored were m/z 274.1 to m/z 84.3 for the analyte and m/z 288.0 to m/z 98.0 for the probe calibrator CC-6032. Calibration was performed using weighted (1/x^2) quadratic regression of peak area. Two calibration curves for 4-amino-2-(2,6-dioxo-piperidine-3-yl)-isoindoline-1,3-dione in PBS and lactated ringers solution were constructed using standards at concentrations of 1.28, 2.56, 5.12, 10.2, 25.6, 64.0, 160, 400, 1000, and 2000 ng/mL. A quadratic regression model with a weighting of 1/(x^2) was used for the regression of calibration curves. Concentrations below the limit of quantitation (“BLOQ”) were treated as zero for calculations.

[1] = microdialysis, male CD-IGS rats, single p.o. 50 mg/kg, n = 3, listed as 4-amino-2-(2,6-dioxo-piperidine-3-yl)-isoindoline-1,3-dione, 50 mg/kg
[2] = microdialysis, male CD-IGS rats, single p.o. 50 mg/kg, n = 3, listed as pomalidomide, 50 mg/kg

Nc1cccc2c1C(=O)N(C1CCC(=O)NC1=O)C2=O (centres unmarked) [Pomalidomide, 4-amino-2-(2,6-dioxo-piperidine-3-yl)-isoindoline-1,3-dione]
Kp (male, CD-IGS, oral, 50 mg/kg, crossed the blood brain barrier, rats, read-out: CNS penetration): ~0.39 | AUC(0-10), unbound, Brain [1]: 2700 ± 740 ng·h/mL | Cmax, unbound, Brain [1]: 430 ± 63 ng/mL | AUC ratio Brain:Blood (unbound) [2]: 0.39 ± 0.03 | AUC(0-10), unbound, Blood [2]: 6800 ± 2000 ng·h/mL | AUC(0-10), unbound, Brain [2]: 2700 ± 740 ng·h/mL | Cmax, unbound, Blood [2]: 1100 ± 82 ng/mL | Cmax, unbound, Brain [2]: 430.0 ± 63 ng/mL | Tmax (blood (jugular vein) microdialysate, po, microdialysis, male CD-IGS rats, single p.o. 50 mg/kg, n = 3, read-out: Tmax, unbound, Blood): 4.6 ± 2.4 h | Tmax (brain (striatum) microdialysate, po, microdialysis, male CD-IGS rats, single p.o. 50 mg/kg, n = 3, read-out: Tmax, unbound, Brain): 4.1 ± 1.5 h | Kp (po, microdialysis, male CD-IGS rats, single p.o. 50 mg/kg, n = 3, read-out: AUC ratio Brain:Blood (unbound)): 0.39 ± 0.03

— patent US9839632B2, “Methods and compositions using 4-amino-2-(2,6-dioxo-piperidine-3-yl)-isoindoline-1,3-dione for treatment and management of central nervous system cancers” (CELGENE CORPORATION, priority 2013, dated 2017)
